One block for each compound: values may come before it.
How the values were obtained:
[1] = tested on: neonatal mouse calvaria; experiment: Neonatal mouse calvaria assay (in vitro bone formation); assay type: cell-based; set-up: Osteoblast Number, % increase over vehicle control / New Bone Area, % increase over vehicle control: concentration or dose not given beside the values
Experimental: Briefly, four days after birth, the front and parietal bones of ICR Swiss white mouse pups are removed by microdissection and split along the sagittal suture.
Three μm sections of the calvaria are prepared. Representative sections are selected for histomorphometric assessment of bone formation or bone resorption. Bone changes are measured on sections cut 200 μm apart. Osteoblasts and osteoclasts are identified by their distinctive morphology.
Selected compounds and appropriate controls were assayed in vitro (ex vivo) for bone formation activity (described above in “Neonatal Mouse Calvaria Assay (in vitro)”). Histomorphometrical assessments of ex vivo calvaria were carried out using an OsteoMetrics bone morphometry measurement program, according to the manufacturer's instructions. Measurements were determined using either a 10- or 20-fold objective with a standard point counting eyepiece graticule.
New bone formation was determined (using a 10× objective) by measuring the new bone area formed in one field in 3 representative sections of each bone (4 bones per group). Each measurement was carried out ½ field distance from the end of the suture. Both total bone and old bone area were measured. Data were expressed as new bone area in mm^2.
Osteoblast numbers were determined by point counting. The number of osteoblast cells lining the bone surface on both sides of the bone were counted in one field using a 20× objective. Data were expressed as osteoblast numbers/mm of bone surface.
The results were calculated as new bone area in mm^2×10^−3, as above.

[2] = tested on: serum response element (SRE)-luciferase reporter gene / CRE-luciferase reporter gene; experiment: negative control OBSRE (SRE-luciferase) and/or glucagon (CRE-luciferase) assays; assay type: cell-based, murine
Excerpt: In the negative control OBSRE assay, a murine osteoblast cell line, such as CCC-4 expressing a serum response element (SRE)-luciferase reporter gene is used (see WO96/07733). In the negative control glucagon assay, a glucagon receptor-positive BHK cell expressing a CRE-luciferase reporter gene is used (see U.S. Pat. No. 5,698,672).

[3] = tested on: BMP-2 promoter; experiment: ABA assay: BMP-2 promoter-luciferase reporter in 2T3-BMP-2-LUC osteoblast cells; assay type: cell-based, mouse; conditions: for % 59-0008 Response / Fold increase over negative control: Experiment 1
Experimental: These transformed cells are then evaluated for the production of the reporter gene product; compounds that activate the BMP promoter will drive production of the reporter protein, which can be readily assayed.
The cells were cultured using α-MEM, 10% FCS with 1% penicillin/streptomycin and 1% glutamine (“plating medium”), and were split 1:5 once per week. For the assay, the cells were resuspended in a plating medium containing 4% FCS, plated in microtiter plates at a concentration of 5×10^3 cells (in 50 μl)/well, and incubated for 24 hours at 37° C. in 5% CO2. To initiate the assay, 50 μl of the test compound or the control in DMSO was added at 2× concentration to each well, so that the final volume was 100 μl. The final serum concentration was 2% FCS, and the final DMSO concentration was 1%.
The treated cells were incubated for 24 hours at 37° C. and 5% CO2. The medium was then removed, and the cells were rinsed three times with PBS. After removal of excess PBS, 25 μl of 1× cell culture lysing reagent (Promega #E153A) was added to each well and incubated for at least ten minutes. Optionally, the plates/samples could be frozen at this point. To each well was added 50 μl of luciferase substrate (Promega #E152A; 10 ml Promega luciferase assay buffer per 7 mg Promega luciferase assay substrate). Luminescence was measured on an automated 96-well luminometer, and was expressed as either picograms of luciferase activity per well or as picograms of luciferase activity per microgram of protein.
Alternatively, the reactivity of a compound to be tested can be compared directly to a negative control containing no compound.

[4] = tested on: ICR Swiss white mice calvaria; experiment: In vivo murine calvarial bone growth assay; set-up: species or system mouse; conditions: 12.5 μg/kg/day
Experimental: Male ICR Swiss white mice, aged 4-6 weeks and weighing 13-26 gm, are employed, using 4-5 mice per group. The calvarial bone growth assay is performed as described in PCT application WO 95/24211, incorporated by reference. Briefly, the test compound or appropriate control vehicle is injected into the subcutaneous tissue over the right calvaria of normal mice. Typically, the control vehicle is the vehicle in which the compound was solubilized, and is PBS containing 5% DMSO or is PBS containing Tween (2 μl/10 ml). The animals are sacrificed on day 14 and bone growth measured by histomorphometry. Bone samples for quantitation are cleaned from adjacent tissues and fixed in 10% buffered formalin for 24-48 hours, decalcified in 14% EDTA for 1-3 weeks, processed through graded alcohols; and embedded in paraffin wax. Three to five μm sections of the calvaria are prepared, and representative sections are selected for histomorphometric assessment of the effects on bone formation and bone resorption. Sections are measured by using a camera lucida attachment to trace directly the microscopic image onto a digitizing plate. Bone changes are measured on sections cut 200 μm apart, over 4 adjacent 1×1 mm fields on both the injected and noninjected sides of the calvaria. New bone is identified by its characteristic woven structure, and osteoclasts and osteoblasts are identified by their distinctive morphology. Histomorphometry software (OsteoMeasure, Osteometrix, Inc., Atlanta) is used to process digitizer input to determine cell counts and measure areas or perimeters.
The results are reported as a measurement of total bone area (and % increase in area over vehicle control), as shown below.

[5] = under these conditions (0.1-1000 μM)

Compound: NCCCC(O)(P(=O)(O)O)P(=O)(O)O [Alendronate, alendronate]
New Bone Area ([1]; other bisphosphonates, 0.1 μM): 3.5 ± 0.3 mm^2 × 10^−3
New Bone Area ([1]; other bisphosphonates, 1 μM): 5.2 ± 0.5 mm^2 × 10^−3
New Bone Area ([1]; other bisphosphonates, 10 μM): 3.3 ± 0.6 mm^2 × 10^−3
New Bone Area ([1]; other bisphosphonates, 100 μM): Toxic
effect on new bone area [1, 5]: negligible effects

Compound: O=P(O)(O)C(Cl)(Cl)P(=O)(O)O [Clodronate, clodronate]
New Bone Area ([1]; other bisphosphonates, 10 μM): 4.8 ± 1.3 mm^2 × 10^−3
New Bone Area ([1]; other bisphosphonates, 100 μM): 4.6 ± 0.6 mm^2 × 10^−3
New Bone Area ([1]; other bisphosphonates, 1000 μM): 3.5 ± 0.5 mm^2 × 10^−3
effect on new bone area [1, 5]: negligible effects

dose-dependent stimulatory effect in control assays [2]: not in control assays
Compound: CCC(C)(C)C(=O)O[C@H]1C[C@@H](C)C=C2C=C[C@H](C)[C@H](CC[C@@H](O)C[C@@H](O)CC(=O)O)[C@H]21 [Hydrolyzed simvastatin, hydrolyzed simvastatin]
dose-dependent stimulatory effect in the ABA assay [3]: dose-dependent stimulatory effect
% 59-0008 Response ([3]; 0.195312 μg/ml): −0.680%
Fold increase over negative control ([3]; 0.195312 μg/ml): 0.9 fold
% 59-0008 Response ([3]; 0.390625 μg/ml): 1.520%
Fold increase over negative control ([3]; 0.390625 μg/ml): 1.1 fold
% 59-0008 Response ([3]; 0.78125 μg/ml): 10.430%
Fold increase over negative control ([3]; 0.78125 μg/ml): 1.6 fold
% 59-0008 Response ([3]; 1.5625 μg/ml): 36.190%
Fold increase over negative control ([3]; 1.5625 μg/ml): 3.4 fold
% 59-0008 Response ([3]; 3.125 μg/ml): 75.860%
Fold increase over negative control ([3]; 3.125 μg/ml): 6.0 fold
% 59-0008 Response ([3]; 6.25 μg/ml): 150.260%
Fold increase over negative control ([3]; 6.25 μg/ml): 10.9 fold
% 59-0008 Response ([3]; 12.5 μg/ml): 156.230%
Fold increase over negative control ([3]; 12.5 μg/ml): 11.3 fold
% 59-0008 Response ([3]; 25 μg/ml): 200.230%
Fold increase over negative control ([3]; 25 μg/ml): 14.3 fold
% 59-0008 Response ([3]; 50 μg/ml): 44.520%
Fold increase over negative control ([3]; 50 μg/ml): 3.9 fold
% 59-0008 Response ([3]; 100 μg/ml): −15.230%
Fold increase over negative control ([3]; 100 μg/ml): −0.0 fold
% 59-0008 Response ([3]; 200 μg/ml): −15.140%
Fold increase over negative control ([3]; 200 μg/ml): −0.0 fold

Compound: CCCCCN(C)CCC(O)(P(=O)(O)O)P(=O)(O)O [Ibandronate, ibandronate]
effect on bone formation (dose response curves) ([1]; 10 μM): significant increase of bone formation
New Bone Area ([1]; Experiment 1, 10 μM): 8.3 ± 0.7 mm^2 × 10^−3
New Bone Area ([1]; Experiment 1, 100 μM): Toxic
New Bone Area ([1]; Experiment 1, 1000 μM): Toxic
New Bone Area ([1]; Experiment 2, 0.01 μM): 3.5 ± 0.43 mm^2 × 10^−3
New Bone Area ([1]; Experiment 2, 0.1 μM): 3.2 ± 0.56 mm^2 × 10^−3
New Bone Area ([1]; Experiment 2, 1 μM): 4.9 ± 1.2 mm^2 × 10^−3
New Bone Area ([1]; Experiment 2, 10 μM): 7.2 ± 0.7 mm^2 × 10^−3
New Bone Area ([1]; Experiment 2, 100 μM): Toxic
New Bone Area ([1]; Experiment 2, 1000 μM): Toxic
New Bone Area ([1]; Experiment 3, 0.1 μM): 6.2 ± 0.6 mm^2 × 10^−3
New Bone Area ([1]; Experiment 3, 1 μM): 7.5 ± 0.7 mm^2 × 10^−3
New Bone Area ([1]; Experiment 3, 10 μM): 9.5 ± 2.4 mm^2 × 10^−3
New Bone Area ([1]; Experiment 3, 100 μM): Toxic
New Bone Area ([1]; combination study, IBN (1 μM), ibandronate 1 μM alone): 3.95 ± 0.28 mm^2 × 10^−3
New Bone Area ([1]; combination study, IBN (10 μM), ibandronate 10 μM alone): 6.03 ± 1.56 mm^2 × 10^−3

Compound: NCCC(O)(P(=O)(O)O)P(=O)(O)O [Pamidronate, pamidronate]
New Bone Area ([1]; other bisphosphonates, 10 μM): 6.0 ± 0.5 mm^2 × 10^−3
New Bone Area ([1]; other bisphosphonates, 100 μM): 5.8 ± 0.6 mm^2 × 10^−3
New Bone Area ([1]; other bisphosphonates, 1000 μM): 5.2 ± 0.6 mm^2 × 10^−3
effect on new bone area [1, 5]: negligible effects

Compound: O=P(O)(O)C(O)(Cc1cccnc1)P(=O)(O)O [Risedronate, risedronate]
effect on new bone area ([1]; 10 μM and 100 μM): significant increases in new bone area
New Bone Area ([1]; other bisphosphonates, 10 μM): 8.5 ± 0.5 mm^2 × 10^−3
New Bone Area ([1]; other bisphosphonates, 100 μM): 7.3 ± 1.9 mm^2 × 10^−3
New Bone Area ([1]; other bisphosphonates, 1000 μM): Toxic

Compound: bFGF: control factor, "gold standard" agent for bone growth
New Bone Area ([1]; Experiment 1, 3 days): 5.7 mm^2 × 10^−3
New Bone Area, % increase over vehicle control ([1]; Experiment 1, 3 days): 19%
Osteoblast Number ([1]; Experiment 1, 3 days): 179.25 Obs/field
Osteoblast Number, % increase over vehicle control ([1]; Experiment 1, 3 days): 84%
New Bone Area ([1]; Experiment 1, 7 days): 18.1 mm^2 × 10^−3
New Bone Area, % increase over vehicle control ([1]; Experiment 1, 7 days): 132%
Osteoblast Number ([1]; Experiment 1, 7 days): 168.7 Obs/field
Osteoblast Number, % increase over vehicle control ([1]; Experiment 1, 7 days): 82%
% increase in total bone area over vehicle control [4]: 45%
Total Bone Area [4]: 242 μm^2

From US6642216B2, “Isoprenoid pathway inhibitors for stimulating bone growth” (ZymoGenetics Corporation, priority 1996, dated 2003)
